Source: patent US20050215649A1, “Conjugated alphatic dialdehyde disinfecting and sterilizing compositions and methods of using the same” (priority 2004, published 2005)
Read-outs that look alike come from different tables or passages of the source.

What was measured:
Mycobacterium bovis BCG = type: cell-based; conditions: for time within which biocidal: 0.5% 2-butenedial
[1] = Use life stability at 25° C. for 14 days, effect of pH; type: physicochemical
Description: Solutions containing 2% of 2-butenedial buffered to pH 2.5, 3.5 and 4.5 were aged at 25° C. for 14 days to determine the effect of pH on use life stability.

[2] = Storage stability of solutions at 25° C., effect of pH; type: physicochemical
Description: Solutions containing about 3% of 2-butenedial buffered to pH 3, 5 and 7 were stored at 25° C. for about 3 months to determine the effect of pH on the stability of the solutions.

spores of B. subtilis = assay: AOAC Sporicidal Test, B. subtilis spores; type: cell-based; conditions: pH 4, 20° C., 24 hours
Description: (§1) In this example, a series of aqueous solutions containing from 2 to 0.5% of 2-butenedial, buffered at pH 4 with monopotassium hydrogen phosphate and acetic acid, were tested according to methods described in the AOAC Sporicidal Test to determine their effectiveness against spores of B. subtilis and C. sporogenes at 20° C. in 24 hours.

[3] = Storage stability of solutions at 0-5° C., pH 4; type: physicochemical; conditions: pH 4, 0-5° C.
Description: Solutions containing about 2.7% of 2-butenedial buffered to pH 4 were stored at 0-5° C. for about 3 months to determine the effect of storage temperature on the stability of the solutions.

Solubility in water = type: physicochemical
Description: 2-Butenedial is present in the composition, at use concentration, in amounts of between 0.5% and 1.0% by weight. Higher concentrations, e.g., up to 2%, or lower concentrations, e.g., above 0.25%, could be used if desired. The preferred concentration of 2-butenedial at use dilution is about 0.5% by weight. Higher concentrations of 2-butenedial may be used for shipping the composition to the point of use and the composition could then be diluted with water to the desired use concentration. The limit on the amount of 2-butenedial used in the concentrate composition is a function of the solubility of 2-butenedial in water, which is about 20% w/w. To achieve compositions with greater than 20% w/w, a water miscible co-solvent can be used. Typically, suitable co-solvents include low molecular weight alcohols and glycols. The optimum parameters for any given quantity to be sterilized or disinfected can be determined by routine experimentation using varying concentrations, treatment times, and temperatures as described herein.

spores of C. sporogenes = assay: AOAC Sporicidal Test, C. sporogenes spores; type: cell-based; conditions: pH 4, 20° C., 24 hours
Description: as §1

[4] = 0.5% (w/w) butenedial, penicylinders
[5] = 1% (w/w) butenedial, penicylinders
[6] = 2% (w/w) butenedial, penicylinders

SMILES: O=CC=CC=O [2-butenedial, 2-Butenedial]
- time within which biocidal (Mycobacterium bovis BCG; pH 4, 20° C.): ≤ 30 min
- time within which biocidal (Mycobacterium bovis BCG; pH 5.5, 20° C.): ≤ 30 min
- Percent Reduction of Organisms (Mycobacterium bovis BCG; 0.5% (w/w) butenedial, pH 4, 20° C., 5 min): >99.78%
- Percent Reduction of Organisms (Mycobacterium bovis BCG; 0.5% (w/w) butenedial, pH 4, 20° C., 15 min): >99.996%
- Percent Reduction of Organisms (Mycobacterium bovis BCG; 0.5% (w/w) butenedial, pH 4, 20° C., 30 min): >100%
- Percent Reduction of Organisms (Mycobacterium bovis BCG; 0.5% (w/w) butenedial, pH 4, 20° C., 60 min): >100%
- Percent Reduction of Organisms (Mycobacterium bovis BCG; 0.5% (w/w) butenedial, pH 5.5, 20° C., 5 min): 83.5%
- Percent Reduction of Organisms (Mycobacterium bovis BCG; 0.5% (w/w) butenedial, pH 5.5, 20° C., 15 min): >99.996%
- Percent Reduction of Organisms (Mycobacterium bovis BCG; 0.5% (w/w) butenedial, pH 5.5, 20° C., 30 min): >100%
- Percent Reduction of Organisms (Mycobacterium bovis BCG; 0.5% (w/w) butenedial, pH 5.5, 20° C., 60 min): >100%
- Percent Reduction of Organisms (Mycobacterium bovis BCG; 1% (w/w) butenedial, pH 4, 20° C., 5 min): >99.97%
- Percent Reduction of Organisms (Mycobacterium bovis BCG; 1% (w/w) butenedial, pH 4, 20° C., 15 min): >99.997%
- Percent Reduction of Organisms (Mycobacterium bovis BCG; 1% (w/w) butenedial, pH 4, 20° C., 30 min): >100%
- Percent Reduction of Organisms (Mycobacterium bovis BCG; 1% (w/w) butenedial, pH 4, 20° C., 60 min): >100%
- Percent Reduction of Organisms (Mycobacterium bovis BCG; 1% (w/w) butenedial, pH 5.5, 20° C., 5 min): 94.5%
- Percent Reduction of Organisms (Mycobacterium bovis BCG; 1% (w/w) butenedial, pH 5.5, 20° C., 15 min): >99.997%
- Percent Reduction of Organisms (Mycobacterium bovis BCG; 1% (w/w) butenedial, pH 5.5, 20° C., 30 min): >100%
- Percent Reduction of Organisms (Mycobacterium bovis BCG; 1% (w/w) butenedial, pH 5.5, 20° C., 60 min): >100%
- Percent Reduction of Organisms (Mycobacterium bovis BCG; 2% (w/w) butenedial, pH 4, 20° C., 5 min): >99.98%
- Percent Reduction of Organisms (Mycobacterium bovis BCG; 2% (w/w) butenedial, pH 4, 20° C., 15 min): >99.998%
- Percent Reduction of Organisms (Mycobacterium bovis BCG; 2% (w/w) butenedial, pH 4, 20° C., 30 min): >100%
- Percent Reduction of Organisms (Mycobacterium bovis BCG; 2% (w/w) butenedial, pH 4, 20° C., 60 min): >100%
- Percent Reduction of Organisms (Mycobacterium bovis BCG; 2% (w/w) butenedial, pH 5.5, 20° C., 5 min): 95%
- Percent Reduction of Organisms (Mycobacterium bovis BCG; 2% (w/w) butenedial, pH 5.5, 20° C., 15 min): 99.95%
- Percent Reduction of Organisms (Mycobacterium bovis BCG; 2% (w/w) butenedial, pH 5.5, 20° C., 30 min): >100%
- Percent Reduction of Organisms (Mycobacterium bovis BCG; 2% (w/w) butenedial, pH 5.5, 20° C., 60 min): >100%
- minimum effective concentration (Mycobacterium bovis BCG; based on results on spores and tubercular bacteria): 0.5%
- acceptable use life stability ([1]; 25° C., pH 2.5, 3.5 and 4.5, minimum effective concentration 0.5%): at least 14 days
- Percent (%) Butenedial ([1]; pH 2.5, 25° C., use life 0 days): 2.0%
- Percent (%) Butenedial ([1]; pH 2.5, 25° C., use life 2 days): 1.94%
- Percent (%) Butenedial ([1]; pH 2.5, 25° C., use life 4 days): 1.84%
- Percent (%) Butenedial ([1]; pH 2.5, 25° C., use life 7 days): 1.78%
- Percent (%) Butenedial ([1]; pH 2.5, 25° C., use life 10 days): 1.7%
- Percent (%) Butenedial ([1]; pH 2.5, 25° C., use life 14 days): 1.6%
- Percent (%) Butenedial ([1]; pH 3.5, 25° C., use life 0 days): 2.0%
- Percent (%) Butenedial ([1]; pH 3.5, 25° C., use life 2 days): 1.92%
- Percent (%) Butenedial ([1]; pH 3.5, 25° C., use life 4 days): 1.76%
- Percent (%) Butenedial ([1]; pH 3.5, 25° C., use life 7 days): 1.6%
- Percent (%) Butenedial ([1]; pH 3.5, 25° C., use life 10 days): 1.5%
- Percent (%) Butenedial ([1]; pH 3.5, 25° C., use life 14 days): 1.4%
- Percent (%) Butenedial ([1]; pH 4.5, 25° C., use life 0 days): 2.0%
- Percent (%) Butenedial ([1]; pH 4.5, 25° C., use life 2 days): 1.73%
- Percent (%) Butenedial ([1]; pH 4.5, 25° C., use life 4 days): 1.5%
- Percent (%) Butenedial ([1]; pH 4.5, 25° C., use life 7 days): 1.32%
- Percent (%) Butenedial ([1]; pH 4.5, 25° C., use life 10 days): 1.0%
- Percent (%) Butenedial ([1]; pH 4.5, 25° C., use life 14 days): 0.8%
- Percent (%) Butenedial ([2]; pH 3, 25° C., storage time 0 months): 2.94%
- Percent (%) Butenedial ([2]; pH 3, 25° C., storage time 1 month): 2.4%
- Percent (%) Butenedial ([2]; pH 3, 25° C., storage time 2 months): 1.77%
- Percent (%) Butenedial ([2]; pH 3, 25° C., storage time 3 months): 0.95%
- Percent (%) Butenedial ([2]; pH 5, 25° C., storage time 0 months): 2.94%
- Percent (%) Butenedial ([2]; pH 5, 25° C., storage time 1 month): 1.06%
- Percent (%) Butenedial ([2]; pH 5, 25° C., storage time 2 months): 0.55%
- Percent (%) Butenedial ([2]; pH 5, 25° C., storage time 3 months): 0.13%
- Percent (%) Butenedial ([2]; pH 7, 25° C., storage time 0 months): 2.94%
- Percent (%) Butenedial ([2]; pH 7, 25° C., storage time 1 month): 0.12%
- Percent (%) Butenedial ([2]; pH 7, 25° C., storage time 2 months): 0.09%
- Percent (%) Butenedial ([2]; pH 7, 25° C., storage time 3 months): 0.06%
- acceptable storage stability ([2]; stored as one component at pH 3, 25° C.): about 3 months
- Total No. of Positives(Failures/Total No. of Tests) (spores of B. subtilis; [4]): 0/30
- Total No. of Positives(Failures/Total No. of Tests) (spores of B. subtilis; 0.5% (w/w) butenedial, sutures): 0/30
- Total No. of Positives(Failures/Total No. of Tests) (spores of B. subtilis; [5]): 0/30
- Total No. of Positives(Failures/Total No. of Tests) (spores of B. subtilis; 1% (w/w) butenedial, sutures): 0/30
- Total No. of Positives(Failures/Total No. of Tests) (spores of B. subtilis; [6]): 0/30
- Total No. of Positives(Failures/Total No. of Tests) (spores of B. subtilis; 2% (w/w) butenedial, sutures): 0/30
- minimum effective concentration against spores (spores of B. subtilis): about 0.5%
- % Butenedial ([3]; storage time 0 mo): 2.72%
- % Butenedial ([3]; storage time 1 mo): 2.67%
- % Butenedial ([3]; storage time 2 mo): 2.68%
- % Butenedial ([3]; storage time 3 mo): 2.54%
- solubility in water (Solubility in water): about 20 % w/w
- Total No. of Positives(Failures/Total No. of Tests) (spores of C. sporogenes; [4]): 1/30
- Total No. of Positives(Failures/Total No. of Tests) (spores of C. sporogenes; 0.5% (w/w) butenedial, sutures): 0/30
- Total No. of Positives(Failures/Total No. of Tests) (spores of C. sporogenes; [5]): 0/30
- Total No. of Positives(Failures/Total No. of Tests) (spores of C. sporogenes; 1% (w/w) butenedial, sutures): 0/30
- Total No. of Positives(Failures/Total No. of Tests) (spores of C. sporogenes; [6]): 0/30
- Total No. of Positives(Failures/Total No. of Tests) (spores of C. sporogenes; 2% (w/w) butenedial, sutures): 0/30
- minimum effective concentration against spores (spores of C. sporogenes): about 0.5%
